The text below walks through data of patent US4348410A, “Cyclohexane carboxylic acid derivatives” (Nippon Chemiphar Co., Ltd., priority 1979, dated 1982).

In experiment [1] the target is T1, trypsin (Bos taurus, UniProt P00760).
T1 sequence (P00760 24-246): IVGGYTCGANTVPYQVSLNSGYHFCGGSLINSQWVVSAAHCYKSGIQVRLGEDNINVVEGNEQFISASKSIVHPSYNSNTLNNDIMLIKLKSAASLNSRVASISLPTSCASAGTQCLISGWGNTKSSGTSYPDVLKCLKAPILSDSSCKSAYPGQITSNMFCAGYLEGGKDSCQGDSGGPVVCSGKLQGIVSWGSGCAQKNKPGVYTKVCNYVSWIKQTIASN
Put plainly: Inhibitory effects on trypsin (hydrolysis of p-tosylarginine methyl ester). To be noted: 37° C., 10 minutes; concentration not given. Format: biochemical. The procedure:
In particular, inhibitory effects of the compounds on hydrolysis of p-tosylarginine methyl ester by trypsin were examined (incubated at 37° C. for 10 minutes).

Experiment [2] concerns the target chymotrypsin (Bos taurus, UniProt P00766). Put plainly: Inhibitory effects on chymotrypsin (hydrolysis of N-acetyl-L-tyrosine ethyl ester). Type of experiment: biochemical. The conditions noted are these: 37° C., 10 minutes; concentration not given. The method, then: The compounds of the formula (I) have excellent inhibitory effects on protease. The inhibitory effects were determined by the following methods: Inhibitory effects on the compounds of chymotrypsin were determined according to the method described by M. […] In particular, inhibitory effects of the compounds on hydrolysis of N-acetyl-L-tyrosine ethyl ester by chymotrypsin were examined (incubated at 37° C. for 10 minutes).

In experiment [3] the test system is cysteamine-induced duodenal ulcers. The experiment in a line: Duodenal ulcers (cysteamine-induced). Format: in vivo, Female Sprague-Dawley strain rats. The method, then:
Female Sprague-Dawley strain rats, weighing about 200 g were deprived of food for 24 hours prior to experiment. Cysteamine 400 mg/kg was given subcutaneously once to the rats. The animals were provided food and libitum from the 7 hours later. The test drug was given orally as aqueous suspension after 7 hours, the administration of cysteamine, then daily×4. On the next morning of the last administration, the animals were sacrificed under ether anesthesia. The ulcer area (mm^2) was measured and described as ulcer index.

Regarding `N=C(N)NC[C@H]1CC[C@H](C(=O)Oc2ccccc2C(=O)OCc2ccccc2)CC1` [Compound 1], the “Inhibition (%) Trypsin” value in experiment [1] worked out at 79%. For the same molecule, the “Inhibition (%) Chymotrypsin” value in experiment [2] came out at 100%. In experiment [3] (250 mg/kg orally), the “Inhibition (%)” value turned out to be 72.1% and the “Ulcer Index (mm^2)” value amounted to 22.5 ± 3.9 mm^2. Further, in experiment [3] (500 mg/kg orally), the “Inhibition (%)” value was found to be 85.5% and the “Ulcer Index (mm^2)” value is 11.7 ± 3.6 mm^2.
